{
  "source": "paper PMC5656594",
  "about": "(Scientific Reports, 2017)",
  "key": {"[1]": {"biological_target": "T1, PFV IN complexed with various DNA sequences (Human spumaretrovirus, UniProt P14350)", "T1 construct": "The full-length wt IN^PFV, the three single mutants of the catalytic triad; His; made in house; host or cells: E. coli BL21-CodonPlus (DE3)-RIPL", "test": "DTG binding to IN complexed with various DNA sequences, fluorescence intensity procedure", "design": "species or system prototype foamy virus (PFV)", "settings": "for DTG-binding (%) Fluorescence intensity procedure: normalized by DNA#1, [IN]=[DNA]=1.8 μM, [DTG]=0.3 μM, 1 mM Mg2+", "procedure": "All experiments were performed in the presence of 1 mM Mg^2+ (see Supplementary Fig. S4 for [Mg^2+] = 10 mM). λex = 345 nm and PMT = 980 V (Δλex = Δλem = 5 nm). […] Contributions of Raman and Rayleigh scattering were eliminated in the inset spectrum: (viii) = (iv)–(vii) where (vii) represents the proper spectrum of Mg^2+-DTG in the context of the binary IN-DNA complex. […] [Mg^2+] = 1 mM. Inset: fluorescence intensity (375–385 nm) as a function of (IN + DNA). The arrows indicate the intensity level after addition of 500 mM NaCl. Emission spectra are representative of 3 independent experiments for each condition of (IN + DNA). […] (E) Measurement of the binary IN-DNA complex formation. The formation of binary complexes was performed by monitoring the fluorescence anisotropy (r) of DNA (Fl-PFV^CAAT) under similar experimental conditions of the DTG-binding assay (panels C-D). Top, varying stoichiometric concentrations of IN and DNA were mixed and the r parameter was monitored. A constant concentration of Fl-DNA (0.3 μM) was maintained throughout the titration. […] Bottom, corresponding percentages of binary complexes as a function of (IN + DNA): % = (r–r0)/(rmax–r0)x100 where r0 and rmax correspond to anisotropy values of free DNA and IN-bound DNA, respectively. (F) Linear relationship between the percentages of ternary and binary complexes. […]\n(§1) Fluorescence excitation and emission spectra of INSTIs were recorded on a Eclipse (Varian) spectrofluorimeter equipped with two polarizers for anisotropy measurements and a thermostated cell holder, using 80 µl solutions placed in micro cells (Hellma). Drug, IN and DNA concentrations, excitation/emission slit settings as well as the photomultiplier tube (PMT) voltage are specified in figure legends. The intensity value was corrected from the inner filter effect. The steady-state fluorescence anisotropy was calculated using: r = (IVV–G x IVH)/(IVV + 2GxIVH) where IVV and IVH correspond to vertical and horizontal components, respectively, when the sample is excited with vertically polarized light. G represents the correction factor for the difference in the monochromator transmission between // and ⊥ polarized components: G = IHV/IHH. All experiments were performed at 25 °C in buffer A: 20 mM Tris pH 7.2, 50 mM NaCl, 1 mM DTT and 10% (v/v) DMSO."}, "S217H IN^PFV mutant": {"system": "S217H IN^PFV mutant", "settings": "S217H versus wt; cited from earlier work"}, "IN": {"system": "IN", "settings": "INSTIs; cited from earlier work"}, "S217K IN^PFV-DNA complex": {"biological_target": "T2, S217K IN^PFV-DNA complex (Human spumaretrovirus, UniProt P14350, G968K/S969G)", "T2 construct": "The pET-IN-PFV plasmid containing the full-length IN gene was used for mutagenesis; His; made in house; host or cells: E. coli BL21-CodonPlus (DE3)-RIPL", "test": "DTG fluorescence anisotropy binding assay, S217K mutant", "design": "species or system prototype foamy virus (PFV)", "settings": "10 mM Mg2+, DTG 0.6 μM, [IN]=[DNA]=2.4 μM", "procedure": "(§2) The fluorescence intensity was monitored as a function of (IN + DNA) and plotted as a function of the binary IN-DNA complex concentration (measured as explained in Fig. 2E legend). […] (B) The percentage of ternary complexes was calculated using DTG fluorescence enhancement. […] The graphs in panels A-B show representative data of three independent experiments. […] \"DTG\" is taken from the y-axis title of the same panel.\n(§3) To note, Mg^2+ is dispensable for the overall DNA-binding step of IN[32],[43]–[45] and thus, the loss of Mg^2+ chelation is not contradictory with results showing that catalytic mutants bind equally well to DNA and in a similar manner than wt IN (Supplementary Fig. S6). However, G187R cannot be considered as a catalytic mutant since it sustains a significant ST activity although weak (≈10% of the wt activity; Fig. 6).\n(§4) Fluorescence excitation and emission spectra of INSTIs were recorded on a Eclipse (Varian) spectrofluorimeter equipped with two polarizers for anisotropy measurements and a thermostated cell holder, using 80 µl solutions placed in micro cells (Hellma). […] The steady-state fluorescence anisotropy was calculated using: r = (IVV–G x IVH)/(IVV + 2GxIVH) where IVV and IVH correspond to vertical and horizontal components, respectively, when the sample is excited with vertically polarized light. […]"}, "D128N IN^PFV-DNA complex": {"biological_target": "T3, D128N IN^PFV-DNA complex (Human spumaretrovirus, UniProt P14350, D879N/G968S/S969G)", "T3 construct": "The pET-IN-PFV plasmid containing the full-length IN gene was used for mutagenesis; His; made in house; host or cells: E. coli BL21-CodonPlus (DE3)-RIPL", "test": "Fluorescence enhancement DTG-binding assay, D128N catalytic mutant", "design": "species or system prototype foamy virus (PFV)", "settings": "1 mM Mg2+", "procedure": "as §2, §3, §4"}, "G187R IN^PFV-DNA complex": {"biological_target": "T4, G187R IN^PFV-DNA complex (Human spumaretrovirus, UniProt P14350, G938R/G968S/S969G)", "T4 construct": "The pET-IN-PFV plasmid containing the full-length IN gene was used for mutagenesis; His; made in house; host or cells: E. coli BL21-CodonPlus (DE3)-RIPL", "test": "Fluorescence enhancement DTG-binding assay, G187R mutant", "design": "species or system prototype foamy virus (PFV)", "settings": "DTG 0.3 μM, 1 mM Mg2+", "procedure": "The fluorescence intensity was monitored as a function of (IN + DNA) and plotted as a function of the binary IN-DNA complex concentration (measured as explained in Fig. 2E legend). […] The graphs in panels A-B show representative data of three independent experiments.\nas §1"}, "E221A IN^PFV-DNA complex": {"biological_target": "T5, E221A IN^PFV-DNA complex (Human spumaretrovirus, UniProt P14350, E972A/G968S/S969G)", "T5 construct": "The pET-IN-PFV plasmid containing the full-length IN gene was used for mutagenesis; His; made in house; host or cells: E. coli BL21-CodonPlus (DE3)-RIPL", "test": "Fluorescence enhancement DTG-binding assay, E221A catalytic mutant", "design": "species or system prototype foamy virus (PFV)", "settings": "1 mM Mg2+", "procedure": "as §2, §3, §4"}},
  "data": [
    {"compound": "C[C@@H]1CCO[C@H]2Cn3cc(C(=O)NCc4ccc(F)cc4F)c(=O)c(O)c3C(=O)N12", "note": "[DTG, dolutegravir]", "values": [
      {"measurement": "DTG-binding (%) Fluorescence intensity procedure", "setting": "[1]; DNA#1 (cognate)", "result": 100, "unit": "%"},
      {"measurement": "DTG-binding (%) Fluorescence intensity procedure", "setting": "[1]; DNA#2", "result": "83 ± 5", "unit": "%"},
      {"measurement": "DTG-binding (%) Fluorescence intensity procedure", "setting": "[1]; DNA#3", "result": "89 ± 6", "unit": "%"},
      {"measurement": "DTG-binding (%) Fluorescence intensity procedure", "setting": "[1]; DNA#4", "result": "84 ± 4", "unit": "%"},
      {"measurement": "DTG-binding (%) Fluorescence intensity procedure", "setting": "[1]; DNA#5", "result": "101 ± 5", "unit": "%"},
      {"measurement": "DTG-binding (%) Fluorescence intensity procedure", "setting": "[1]; DNA#6", "result": "76 ± 5", "unit": "%"},
      {"measurement": "DTG-binding (%) Fluorescence intensity procedure", "setting": "[1]; DNA#7", "result": "20 ± 3", "unit": "%"},
      {"measurement": "DTG-binding (%) Fluorescence intensity procedure", "setting": "[1]; DNA#8", "result": "7 ± 2", "unit": "%"},
      {"measurement": "DTG-binding (%) Fluorescence intensity procedure", "setting": "[1]; DNA#9 (random sequence)", "result": "9 ± 2", "unit": "%"},
      {"measurement": "DTG-binding (%) Fluorescence intensity procedure", "setting": "[1]; DNA#10", "result": "23 ± 3", "unit": "%"},
      {"measurement": "DTG-binding (%) Fluorescence intensity procedure", "setting": "[1]; DNA#11", "result": "24 ± 2", "unit": "%"},
      {"measurement": "DTG binding activity, % of the binding activity obtained with DNA#1", "setting": "[1]; DNA#12 (CAAT-3′→CAGT-3′), both procedures (text summary of Table 1)", "result": "72–77%"},
      {"measurement": "DTG-binding (%) Fluorescence intensity procedure", "setting": "[1]; DNA#12", "result": "72 ± 6", "unit": "%"},
      {"measurement": "DTG-binding (%) Fluorescence intensity procedure", "setting": "[1]; DNA#13 (processed DNA product)", "result": "66 ± 4", "unit": "%"},
      {"measurement": "DTG binding activity, % of the binding activity obtained with DNA#1", "setting": "[1]; IN in complex with DNA#2→6 (text summary of Table 1)", "result": "> 76", "unit": "%"},
      {"measurement": "decrease in DTG susceptibility", "setting": "S217H IN^PFV mutant", "result": "2–3 fold"},
      {"measurement": "IC50 values", "setting": "IN", "result": "low-nanomolar range"},
      {"measurement": "DTG binding to S217K by DTG anisotropy", "setting": "S217K IN^PFV-DNA complex", "result": "DTG-binding defects"},
      {"measurement": "DTG binding to D128N catalytic mutant", "setting": "D128N IN^PFV-DNA complex", "result": "loss of DTG-binding"},
      {"measurement": "DTG binding to G187R", "setting": "G187R IN^PFV-DNA complex", "result": "No binding"},
      {"measurement": "DTG binding to E221A catalytic mutant", "setting": "E221A IN^PFV-DNA complex", "result": "loss of DTG-binding"}
    ]}
  ]
}
